Test: Displacement of [3H](S)-warfarin from methacrylic acid-ethylene dimethacrylate copolymer

CC(=O)CC(c1ccc(Cl)cc1)c1c(O)c2ccccc2oc1=O (stereo unspecified) [COUMACHLOR]
EC50: 165 µM | logEC50: -3.78

O=c1ccc2ccccc2o1 [COUMARIN]
EC50: 1290 µM | logEC50: -2.89

CC(=O)CC(c1ccccc1)c1c(O)c2ccccc2oc1=O (stereo unspecified) [WARFARIN]
EC50: 89.6 µM | logEC50: -4.05
